Measured values reported in patent US7176280B2, “Isolated polypeptides and compositions from the venom of P. transvaalicus and methods of use” (The Regents of the University of California, priority 2001, dated 2007).
pEC50: −log10 of the molar value. “Also recorded” adds a separate entry of the source. No end group written: not given here.

Columns and labels:
[1] = cited from earlier work
Male Swiss-Webster mice [2] = assay: Mouse injection bioassay (intracerebroventricular; also subcutaneous, intraperitoneal); format: in vivo; conditions: for symptoms in injected mice (in words): intracerebroventricular injection, dose not given or as in the words; for symptoms in mice: 7–8 week old male Swiss-Webster mice; for Mouse (IC) high dose / Mouse (IC) low dose: preliminary biological activity
Description: (§1) Bioassays: Male Swiss-Webster mice were purchased from Charles River, Inc., and housed at the Animal Housing Facility, UC Davis. Blowfly (Sarcophaga spp.), crickets (Acheta domesticus) and Anole lizards (Anoles caroliensis) were purchased from Carolina Biologicals (Burlington, N.C.). Cotton bollworms (Heliothis virescens) were obtained from USDA/ARS (Stoneville, […].) and reared on artificial diet. Collected fractions were tested on mice by intracerebroventricular injections and by injecting last instar blowfly larvae. Third instar cotton bollworms and adult common house crickets were also used in screening for insecticidal components. Briefly, fractions were concentrated to dryness using a Heto Speed Vac (ATR, Inc. Emeryville, Calif.). Dried samples were resuspended in 10 μl 20 mM ammonium acetate buffer with 1 μg/μl BSA and incubated overnight at 4° C. to insure proper refolding before injection to the test animals. Mice were anesthetized using ethyl ether and intracerebroventricular injections of peptide solutions were executed immediately. […] All symptoms were observed and recorded up to 24 hours post injection. All experiments were carried out in accordance with the guidelines laid down by the National Institutes of Health in the USA regarding the care and use of experimental animals.
Next, the biological activities of Ikitoxin and Birtoxin were compared. Mouse biological activity was evaluated by intracerebroventricular injections of 7–8 week old male Swiss-Webster mice using […] purified toxin.
The biological activities of dortoxin, bestoxin, and ikitoxin were evaluated in blowfly larvae, tobacco budworm larvae, and mice. Blowfly larvae, tobacco budworm larvae were injected with 1 μL of fraction or toxin solution in water. The effects were observed and recorded up to 24 hrs post injection. The toxins to were also injected to mice (swiss-webster male 4–6 week old mice) through an intracerebroventricular route (brain). The mice were anesthetized using ethyl ether then injected with various doses of 5 μL of test solution. The effects were again observed and recorded up to 24 hrs post injection. […] The experiments were terminated after 48 hrs of observation. […] Bestoxin is only two amino acid different from its sister peptide dortoxin. The MALDI determined molecular masses for dortoxin (6643 Da) and bestoxin (6603 Da) also agree with the two amino acid difference of Lys20 in dortoxin to Glu20 in bestoxin and Glu45 in dortoxin to Ser45 in bestoxin.

rat brain synaptosomes = format: binding; conditions: for pEC50: read-out: EC50 (effective concentration)
[3] = test system: sodium channel binding site 3; assay: Ion channel binding properties of birtoxin
[4] = test system: Blowfly (Sarcophaga spp.) larvae; assay: Blowfly larvae injection bioassay; format: in vivo; conditions: for activity against blowfly (Sarcophaga) larvae (in words): injection into larvae
Description: Uctoxin HPLC Purification: Uctoxin was purified through three steps of RP-HPLC guided by insect and mouse bioassays. Initially the venom of P.transvaalicus was resuspended in solvent A (2% acetonitrile 98% water 0.1% TFA) and ran multiple times through a C4 magic bullet column hooked up to a Magic 2002 microbore HPLC System with a linear gradient of 2 to 65% solvent B (98% acetonitrile 2% water 0.1% TFA) in 15 minutes at a flow rate of 300 μL/min. as described above for ikitoxon. UV trace at 214 and 280 nm was monitored. Fraction P3 from the first column was collected, several runs were pooled and freeze dried. This fraction was run on a Michrom C18 microbore column on the same system with a linear gradient of 2 to 65% solvent B in 30 minutes at a flow rate of 50 μL/min. Peak 2 from the C18 column was further purified by running it through a microbore phenyl column on the same system with the same gradient conditions. Purity was confirmed using MALDI-TOF MS. Biological activity of peptide was monitored by intracerebroventricular injection of mice and also injections of blowfly and tobacco budworm larvae. For bioassays uctoxin was purified and resuspended in 20 mM ammonium acetate buffer with 1 ug/ul BSA. (The 50% effective doses (ED50) were determined according to Reed and Muench (Reed L. J., Muench, S. 1938 Am.J.Hyg 27, 493–497.))
as §1
The biological activities of dortoxin, bestoxin, and ikitoxin were evaluated in blowfly larvae, tobacco budworm larvae, and mice. Blowfly larvae, tobacco budworm larvae were injected with 1 μL of fraction or toxin solution in water. The effects were observed and recorded up to 24 hrs post injection. The toxins to were also injected to mice (swiss-webster male 4–6 week old mice) through an intracerebroventricular route (brain). The mice were anesthetized using ethyl ether then injected with various doses of 5 μL of test solution. The effects were again observed and recorded up to 24 hrs post injection. […] The MALDI determined molecular masses for dortoxin (6643 Da) and bestoxin (6603 Da) also agree with the two amino acid difference of Lys20 in dortoxin to Glu20 in bestoxin and Glu45 in dortoxin to Ser45 in bestoxin.

Insect Lepidoptera = assay: Parakinin in vivo assay on Lepidoptera; conditions: preliminary biological activity
From the text: The preliminary biological activity of parakinins I investigated by in vivo assays conducted on insects and mice. Parakinins are active and potent against both invertebrates and vertebrates. These in vivo effects implicate potential pharmaceutical use and development. Due to the small nature of parakinins analogs of these peptides can be synthesized and tested very rapidly.

Male Swiss-Webster mice [5] = assay: Mouse injection bioassay (intracerebroventricular; also subcutaneous, intraperitoneal); format: in vivo; conditions: preliminary biological activity
[6] = intracerebroventricular, 0.2–1 mg purified toxin

RPPGFSPFR [bradykinin]
destroyed on a single passage through the pulmonary circulation ([1]; anesthetized rat): 98%–99%
half life in the systemic circulation ([1]; rat, in vivo): less than 30 seconds

bestoxin (ADVPGNYPLDKDGNTYTCLELGENKDCQKVCKLHGVQYGYCYAFSCWCKEYLDDKDSV; listed as Parabuthus transvaalicus)
sensitivity to stimuli of injected mice (Male Swiss-Webster mice [2]; intracerebroventricular): hypersensitive to stimuli
state of the mice at the end of 48 hrs (Male Swiss-Webster mice [2]; intracerebroventricular): still live, dessicated, and exhausted but still continued to roll
symptoms in injected mice (in words) (Male Swiss-Webster mice [2]): contract, twist and roll around itself indefinitely

birtoxin (ADVPGNYPLDKDGNTYKCFLLGGNEECLNVCKLHGVQYGYCYASKCWCEYLEDDKDVS; not fully specified; ends and bridges not checked)
effect of injection in mice (Male Swiss-Webster mice [2]; 1 μg of pure birtoxin): induced severe neurotoxic symptoms in mice up to 24 hours but was not lethal
effect of injection in mice (Male Swiss-Webster mice [2]; 2 μg of pure peptide): lethal
symptoms in injected mice (in words) (Male Swiss-Webster mice [2]): induced serious symptoms, including tremors, which lasted up to 24 hours post injection at submicrogram amounts
symptoms in mice (Male Swiss-Webster mice [2]; [6]): convulsions, tremors, increased heart rate and finally death
lethality to mice (summary statement) (Male Swiss-Webster mice [2]; mouse, in vivo): lethal to mice at low microgram quantities
enhancement of the binding of [3H] BTX (rat brain synaptosomes): about 4.32 fold
pEC50 (rat brain synaptosomes): ~8.30
sodium channel binding site and mode of action [3]: binds to sodium channel binding site 3 and blocks the sodium channel by prolonging the inactivation

dortoxin (ADVPGNYPLDKDGNTYTCLKLGENKDCQKVCKLHGVQYGYCYAFECWCKEYLDDKDSV; listed as Parabuthus transvaalicus)
symptoms in injected mice (in words) (Male Swiss-Webster mice [2]): convulsions, tremors and death
LD99 (Male Swiss-Webster mice [2]; intracerebroventricular, Swiss-Webster male 4–6 week old mice): < 0.5 μg/20 gr of mouse

ikitoxin (ADVPGNYPLDKDGNTYKCFLLGENEECLNVCKLHGVQYGYCYASKCWCEYLEDDKDVS; listed as Parabuthus transvaalicus)
symptoms in injected mice (in words) (Male Swiss-Webster mice [2]): induced periodic unprovoked jumps in injected mice
time course of the symptom (Male Swiss-Webster mice [2]; [6]): Within three hours of injection the symptom gradually faded
initial frequency of unprovoked jumps (Male Swiss-Webster mice [2]; intracerebroventricular, 0.2–1 mg purified toxin, for 20 minutes): about 3 jumps per minute
symptoms in mice (Male Swiss-Webster mice [2]; [6]): periodic unprovoked jumps
lethality during the observation period (Male Swiss-Webster mice [2]; intracerebroventricular, range of injected doses 0.2–1 mg): did not show lethality
activity against blowfly (Sarcophaga) larvae (in words) [4]: not active against Sarcophaga

parakinin-1 (PFIVPPFR; listed as Parabuthus transvaalicus)
Mouse (IC) high dose (Male Swiss-Webster mice [2]): Paralysis
Mouse (IC) low dose (Male Swiss-Webster mice [2]): Hyperventilation,; also recorded: Hyperactivity
Insect blowfly ([4]; preliminary biological activity): Contractive paralysis
Insect Lepidoptera (Insect Lepidoptera): Contractive paralysis
Mouse (SC) (Male Swiss-Webster mice [5]): Hyperventilation,; also recorded: Hyperactivity

parakinin-2 (PFVVPPFR; listed as Parabuthus transvaalicus)
Mouse (IC) high dose (Male Swiss-Webster mice [2]): Paralysis
Mouse (IC) low dose (Male Swiss-Webster mice [2]): Hyperventilation,; also recorded: Hyperactivity
Mouse (SC) (Male Swiss-Webster mice [5]): Hyperactivity

uctoxin
symptoms in injected mice (in words) (Male Swiss-Webster mice [2]): consistent contraction and tremors
time to lethality (Male Swiss-Webster mice [2]; intracerebroventricular, 0.5 μg of uctoxin): ≤ 30 min
activity against blowfly (Sarcophaga) larvae (in words) [4]: bioactivity only in the case of the first major peak
activity against blowfly (Sarcophaga) larvae (in words) ([4]; listed as Uctoxin): immediate flaccid paralysis
ED50 ([4]; last instar Sarcophaga larvae, flaccid paralysis): about 70 ng/100 mg larvae
enhancement of the binding of [3H] BTX (rat brain synaptosomes): 2 fold
pEC50 (rat brain synaptosomes): ~7.22
